Molecules are shown by their SMILES.

In one experiment the target is A2A receptor (Homo sapiens, UniProt P29274). Briefly: A2A receptor antagonist functional assay (cAMP, A2A cell line). In kind it is cell-based.
A2A receptor, sequence (P29274 whole entry): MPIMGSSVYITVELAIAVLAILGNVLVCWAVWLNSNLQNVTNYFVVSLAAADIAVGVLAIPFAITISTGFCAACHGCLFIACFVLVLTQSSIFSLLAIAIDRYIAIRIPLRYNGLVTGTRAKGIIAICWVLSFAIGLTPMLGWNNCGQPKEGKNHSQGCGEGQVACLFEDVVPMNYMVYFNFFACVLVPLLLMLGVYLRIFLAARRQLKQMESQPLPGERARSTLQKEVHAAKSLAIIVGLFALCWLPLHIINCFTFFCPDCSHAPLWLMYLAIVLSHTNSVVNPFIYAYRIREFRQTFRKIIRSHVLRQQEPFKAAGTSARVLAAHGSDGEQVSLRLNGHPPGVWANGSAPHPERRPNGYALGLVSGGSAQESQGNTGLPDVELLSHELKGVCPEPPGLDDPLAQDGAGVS
Details: not given
On the procedure:
(§1) A2a/A2B Receptor Antagonist Functional Assay Test:
(§2) The A2A cell line was derived from PerkinElmer (Product ID: ES-011-C); the A2B cell line was derived from PerkinElmer (Product ID: ES-013-C). The experimental procedure was referred to ACS Medicinal Chemistry Letters (2011) 2, 213-218; the specific test was completed by Pharmaron Beijing Co., Ltd. with the following steps: 10 nL of compound stock in DMSO (10 mM) followed by 10 μL of A2A or A2B cell suspension (30000 cells/mL) were transferred to assay wells of a 384-well plate at room temperature and incubated for 20 minutes at room temperature. The corresponding amount of 5′-N-ethylcarboxamidoadenosine at EC80 activation concentration was transferred to each test well, and incubated for another 30 minutes at 37° C., 5% CO2, 95% humidity, then Eu-cAMP tracer working solution and Ulight-anti-cAMP working solution were added to the cell culture plate at 5 uL/well in sequence, and the cell plate fluorescence was read with Envision (excitation wavelength: 320 nm, emission wavelength: 665 nm and 615 nm). The corresponding inhibition rate in each well was obtained according to the following formula, and a sigmoidal dose-inhibition rate curve was plotted using a non-linear regression model to calculate the IC50 value.
In the case of `Cc1ccc(-c2nc(N)nc3c(CC4CCC4)cnn23)o1` [Compound 15], inhibition was half-maximal at 16 nM (IC50).
Same read-out and setting: the figure for `Cc1ccc(N)c(Cc2cnn3c(-c4ccc(C)o4)nc(N)nc23)c1` [Compound 44] is 6.2 nM; for `Cc1ccc(-c2nc(N)nc3c(Cc4ccc(F)cc4C)cnn23)o1` [Compound 11] it is 39 nM.
On the same count and under the same terms, then `Cc1ccc(-c2nc(N)nc3c(Cc4c(F)cc(F)cc4F)cnn23)o1` [Compound 12], with 1.5 nM; and `Cc1ccc(-c2nc(N)nc3c(CC4CCCCC4)cnn23)o1` [Compound 13], with 5.7 nM; and `Cc1ccc(-c2nc(N)nc3c(Cc4cccc(COC5CC5)n4)cnn23)o1` [Compound 9], with 3.6 nM.
Same read-out and setting: then `Cc1ccc(-c2nc(N)nc3c(Cc4ccc(N)cc4)cnn23)o1` [Compound 26], with 17.4 nM; and `Cc1ccc(-c2nc(N)nc3c(Cc4cccc(CBr)n4)cnn23)o1` [Compound 6], with 10.2 nM; and `COCCNc1cccc(Cc2cnn3c(-c4ccc(C)o4)nc(N)nc23)n1` [Compound 21], with 4.7 nM.
For `Cc1ccc(-c2nc(N)nc3c(Cc4ccc(N)c(C)c4)cnn23)o1` [Compound 29], the IC50 (usually the concentration that inhibits the measured activity by half) was 5.5 nM.
On the same count and under the same terms, then `COc1cccc(Cc2cnn3c(-c4ccc(C)o4)nc(N)nc23)n1` [Compound 16], with 2.3 nM; and `Cn1ccc(-c2nc(N)nc3c(Cc4cccc(N)c4)cnn23)n1` [Compound 48], with 29.1 nM.
Still for that read-out and setting: then `Cc1ccc(-c2nc(N)nc3c(Cc4cccc(N)c4)c(F)nn23)o1` [Compound 47], with 1.4 nM; and `Nc1cccc(Cc2cnn3c(-c4ccco4)nc(N)nc23)c1` [Compound 25], with 35 nM; and `Cc1ccc(-c2nc(N)nc3c(Cc4cccc(CO[C@H]5CCOC5)[n+]4[O-])cnn23)o1` [Compound 17], with 90 nM.
On the same count and under the same terms, then `Nc1cccc(Cc2cnn3c(-c4ccco4)nc(N)nc23)n1` [Compound 23], with 46 nM; and `Cc1ccc(-c2nc(N)nc3c(Cc4ccc(F)cc4F)cnn23)o1` [Compound 10], with 5 nM.
`Cc1ccc(-c2nc(N)nc3c(CC4CCCC4)cnn23)o1` [Compound 14] returned an IC50 of 10.4 nM.
On the same count and under the same terms, then `Cc1ccc(-c2nc(N)nc3c(Cc4cc(N)c(F)cc4F)cnn23)o1` [Compound 28], with 1.6 nM.
Same read-out and setting: the figure for `Cc1ccc(-c2nc(N)nc3c(Cc4cccc(NCc5ccccc5)n4)cnn23)o1` [Compound 20] is 5.5 nM; for `Cc1ccc(-c2nc(N)nc3c(Cc4ccc(N)c(C)c4)c(C)nn23)o1` [Compound 30] it is 5 nM.
On the same count and under the same terms, then `Cc1ccc(-c2nc(N)nc3c(Cc4cccc(C(C)(C)O)n4)cnn23)o1` [Compound 19], with 1.7 nM; and `Cc1ccc(-c2nc(N)nc3c(Cc4ccccc4N)cnn23)o1` [Compound 27], with 1.9 nM; and `COCCNCc1cccc(Cc2cnn3c(-c4ccc(C)o4)nc(N)nc23)n1` [Compound 8], with 31 nM.
For `Cc1ccc(-c2nc(N)nc3c(Cc4cccc(N)c4)cnn23)o1` [Compound 24], the midpoint of inhibition, the IC50, lay at 3 nM.
Still for that read-out and setting: the figure for `COCc1cccc(Cc2cnn3c(-n4ccc(C)n4)nc(N)nc23)n1` [Compound 4] is 17 nM.
The same measure, in the same setting: the figure for `Cc1ccc(-c2nc(N)nc3c(Cc4cccc(N)n4)cnn23)o1` [Compound 22] is 5.8 nM; for `Cc1ccc(-c2nc(N)nc3c(Cc4ccc(F)cc4)cnn23)o1` [Compound 1] it is 3.3 nM; for `COCc1cccc(Cc2cnn3c(-c4cccs4)nc(N)nc23)n1` [Compound 3] it is 96 nM.
`Cc1ccc(-c2nc(N)nc3c(Cc4cccc(N)c4)c(C)nn23)o1` [Compound 45] registered an IC50 of 1.9 nM.
Same read-out and setting: then `Cc1ccc(-c2nc(N)nc3c(Cc4cccc(N)c4)c(Cl)nn23)o1` [Compound 46], with 1.5 nM.

Still in this experiment, the particulars now being: A2A cell line (PerkinElmer ES-011-C); 5'-N-ethylcarboxamidoadenosine at EC80; cAMP readout; read-out: A2A Antagonistic function IC50.
On to `Cc1ccc(-c2nc(N)nc3c(Cc4cccc(CO[C@H]5CCOC5)n4)cnn23)o1` [Compound 18], for which the IC50 stood at 9.1 nM.
On the same count and under the same terms, then `Cc1ccc(-c2nc(N)nc3c(Cc4cccc(CO)n4)cnn23)o1` [Compound 5], with 5.3 nM.
As to `COCc1cccc(Cc2cnn3c(-c4ccc(C)o4)nc(N)nc23)n1` [Compound 2], the IC50 was found to be 1.8 nM.

Still in this experiment, the particulars now being: read-out: A2A Antagonistic function IC50.
With `COCCOCc1cccc(Cc2cnn3c(-c4ccc(C)o4)nc(N)nc23)n1` [Compound 7], the IC50 came out at 7.1 nM.

For the next experiment, the target named is T1, A2B receptor (Homo sapiens, UniProt P29275).
T1 sequence (P29275 1-332): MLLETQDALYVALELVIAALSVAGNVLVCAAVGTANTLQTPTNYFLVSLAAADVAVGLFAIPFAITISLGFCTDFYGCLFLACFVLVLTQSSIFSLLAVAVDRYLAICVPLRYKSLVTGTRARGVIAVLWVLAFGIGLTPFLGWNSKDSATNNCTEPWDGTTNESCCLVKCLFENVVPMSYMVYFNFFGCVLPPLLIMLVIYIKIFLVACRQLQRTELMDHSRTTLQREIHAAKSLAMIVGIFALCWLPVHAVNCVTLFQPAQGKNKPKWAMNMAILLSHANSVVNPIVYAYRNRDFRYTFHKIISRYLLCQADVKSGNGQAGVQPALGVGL
Briefly: cell-based.
Details: not given
On the procedure: as §1
as §2, with “The experimental procedure was referred to ACS Medicinal Chemistry Letters (2011) 2, 213-218; the specific test was completed by Pharmaron Beijing Co., Ltd. with the following steps: 10 nL of compound stock in DMSO (10 mM) followed by 10 μL of A2A or A2B cell suspension (30000 cells/mL) were transferred to assay wells of a 384-well plate at room temperature and incubated for 20 minutes at room temperature.” left out
Turning to `COCCOCc1cccc(Cc2cnn3c(-c4ccc(C)o4)nc(N)nc23)n1` [Compound 7], it took 103 nM to reach half-maximal inhibition (IC50).
Same read-out and setting: then `Cc1ccc(-c2nc(N)nc3c(Cc4cccc(NCc5ccccc5)n4)cnn23)o1` [Compound 20], with 26 nM; and `Cc1ccc(-c2nc(N)nc3c(Cc4cccc(C(C)(C)O)n4)cnn23)o1` [Compound 19], with 70.5 nM.
For the molecule `Cc1ccc(-c2nc(N)nc3c(Cc4cccc(CO[C@H]5CCOC5)n4)cnn23)o1` [Compound 18], the IC50 is 108 nM.
`Cc1ccc(-c2nc(N)nc3c(Cc4cccc(CO)n4)cnn23)o1` [Compound 5] displayed an IC50 of 16.7 nM.
The same measure, in the same setting: then `Cc1ccc(-c2nc(N)nc3c(Cc4ccc(F)cc4)cnn23)o1` [Compound 1], with 16 nM.
As for `COCc1cccc(Cc2cnn3c(-c4ccc(C)o4)nc(N)nc23)n1` [Compound 2], it took 25 nM to reach half-maximal inhibition (IC50).

The experiment is the same for the next values; noted with them: A2B cell line (PerkinElmer ES-013-C); 5'-N-ethylcarboxamidoadenosine at EC80; cAMP readout; read-out: A2B Antagonistic function IC50.
Consider `Cc1ccc(N)c(Cc2cnn3c(-c4ccc(C)o4)nc(N)nc23)c1` [Compound 44], for which the IC50 came out at 155 nM.
In the case of `Cc1ccc(-c2nc(N)nc3c(Cc4ccc(F)cc4C)cnn23)o1` [Compound 11], the IC50 was found to be 420 nM.
For the molecule `Cc1ccc(-c2nc(N)nc3c(Cc4c(F)cc(F)cc4F)cnn23)o1` [Compound 12], the IC50 was 3.8 nM.
Regarding `Cc1ccc(-c2nc(N)nc3c(Cc4cccc(COC5CC5)n4)cnn23)o1` [Compound 9], the IC50 is 51 nM.
Take `Cc1ccc(-c2nc(N)nc3c(Cc4ccc(N)cc4)cnn23)o1` [Compound 26]: the IC50 is 2.7 nM.
Still for that read-out and setting: the figure for `COCCNc1cccc(Cc2cnn3c(-c4ccc(C)o4)nc(N)nc23)n1` [Compound 21] is 36 nM; for `Cc1ccc(-c2nc(N)nc3c(Cc4ccc(N)c(C)c4)cnn23)o1` [Compound 29] it is 15.3 nM; for `COc1cccc(Cc2cnn3c(-c4ccc(C)o4)nc(N)nc23)n1` [Compound 16] it is 18.6 nM.
Same read-out and setting: then `Cn1ccc(-c2nc(N)nc3c(Cc4cccc(N)c4)cnn23)n1` [Compound 48], with 83.5 nM; and `Cc1ccc(-c2nc(N)nc3c(Cc4cccc(N)c4)c(F)nn23)o1` [Compound 47], with 4 nM; and `Nc1cccc(Cc2cnn3c(-c4ccco4)nc(N)nc23)c1` [Compound 25], with 60 nM.
Consider `Cc1ccc(-c2nc(N)nc3c(Cc4cccc(CO[C@H]5CCOC5)[n+]4[O-])cnn23)o1` [Compound 17], for which the IC50 came out at 1030 nM.
For `Nc1cccc(Cc2cnn3c(-c4ccco4)nc(N)nc23)n1` [Compound 23], the IC50 turned out to be 13 nM.
On the same count and under the same terms, the figure for `Cc1ccc(-c2nc(N)nc3c(Cc4ccc(F)cc4F)cnn23)o1` [Compound 10] is 16.4 nM; for `Cc1ccc(-c2nc(N)nc3c(Cc4cc(N)c(F)cc4F)cnn23)o1` [Compound 28] it is 7.7 nM.
Turning to `Cc1ccc(-c2nc(N)nc3c(Cc4ccccc4N)cnn23)o1` [Compound 27], the IC50 turned out to be 9.7 nM.
For `COCCNCc1cccc(Cc2cnn3c(-c4ccc(C)o4)nc(N)nc23)n1` [Compound 8], the IC50 is 117 nM.
Turning to `Cc1ccc(-c2nc(N)nc3c(Cc4cccc(N)c4)cnn23)o1` [Compound 24], the IC50 was determined as 7.9 nM.
Same read-out and setting: the figure for `Cc1ccc(-c2nc(N)nc3c(Cc4cccc(N)n4)cnn23)o1` [Compound 22] is 1.6 nM; for `Cc1ccc(-c2nc(N)nc3c(Cc4cccc(N)c4)c(C)nn23)o1` [Compound 45] it is 6.2 nM; for `Cc1ccc(-c2nc(N)nc3c(Cc4cccc(N)c4)c(Cl)nn23)o1` [Compound 46] it is 4.6 nM.

Values taken from patent US20220339160A1, “ADENOSINE RECEPTOR ANTAGONIST” (priority 2019, published 2022).
